Assay results: PubChem BioAssay (NCI)
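A five-concentration, 48-hour dose response in 96-well plates underlies each endpoint, interpolated linearly between surrounding concentrations. The concentration for full growth arrest is given as TGI.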

Legend:
Assay in all cases: inhibition of tumour cell growth, NCI panel, 48 h
[1] = test system: COLO 205 colon
[2] = test system: MALME-3M melanoma
[3] = test system: UACC-62 melanoma
[4] = test system: 786-0 renal
[5] = test system: RXF 393 renal
[6] = test system: MOLT-4 leukemia
[7] = test system: HOP-62 NSCLC
[8] = test system: M14 melanoma
[9] = test system: MDA-MB-435
[10] = test system: DU-145 prostate
[11] = test system: OVCAR-3 ovarian
[12] = test system: CCRF-CEM leukemia
[13] = test system: SW-620 colon
[14] = test system: BT-549 breast

| SMILES | TGI [1] [µM] | TGI [2] [µM] | TGI [3] [µM] | TGI [4] [µM] | TGI [5] [µM] | TGI [6] [µM] | TGI [7] [µM] | TGI [8] [µM] | TGI [9] [µM] | TGI [10] [µM] | TGI [11] [µM] | TGI [12] [µM] | TGI [13] [µM] | TGI [14] [µM] |
| --- | --- | --- | --- | --- | --- | --- | --- | --- | --- | --- | --- | --- | --- | --- |
| O=C1NC(N/N=C/c2ccccc2)=N/C1=C\c1cccs1 | 19.9 | 27.8 | 38 | 44.6 | 40.7 | > 92.3 | 37.8 | > 100 | 34.6 | 56.5 | 33.9 | > 75.8 | > 47.5 | 33.6 |
| COc1ccc(C(=O)Cn2c(C(C)=O)nc3ccccc32)cc1 | 52.4 | > 100 | > 92.9 | 33.7 | > 100 | > 100 | 65.7 | > 100 | > 100 | > 100 | > 100 | > 100 | > 100 | > 100 |
| CC(=O)O[C@H]1[C@H](OC(C)=O)[C@@H](CN=[N+]=[N-])OCO[C@@H]1CN=[N+]=[N-] | > 100 | > 100 | > 100 | > 100 | > 100 | > 100 | > 100 | > 100 | > 100 | > 100 | – | > 100 | > 100 | > 100 |
| Cn1c(=O)c2c(ncn2CCSS(=O)(=O)O)n(C)c1=O | > 100 | > 100 | > 100 | > 100 | > 100 | – | > 100 | > 100 | > 100 | > 100 | > 100 | – | > 100 | > 100 |
| O=c1c[n+](-c2ccccc2)[nH]o1 | > 100 | > 100 | > 100 | > 100 | > 100 | – | > 100 | > 100 | > 100 | > 100 | > 100 | > 100 | > 100 | > 100 |
| CC(C)c1ccc2c(c1)C=C1OC(=O)[C@]3(C)CCC[C@@]2(C)C13 (some centres not stated) | > 100 | – | > 100 | > 100 | > 100 | > 100 | > 100 | > 100 | > 100 | > 100 | > 100 | > 100 | > 100 | > 100 |
| NC1=NN(c2ccccc2)C2(c3ccncc3C(=O)O)C1C(N)=NN2c1ccccc1 (configuration not stated) | > 100 | > 100 | > 100 | > 100 | > 100 | > 100 | – | > 100 | > 100 | > 100 | > 100 | > 100 | > 100 | > 100 |
| CN(C)CCCNC(=O)c1cc(NC(=O)c2cc(NC(=O)[C@H]3C[C@@H]3C(=O)Nc3cc(C(=O)Nc4cc(C(=O)NCCCN(C)C)n(C)c4)n(C)c3)cn2C)cn1C | > 100 | > 100 | – | > 100 | – | > 100 | > 100 | > 100 | > 100 | > 100 | – | > 100 | > 100 | > 100 |
| O=C(Nc1ccccc1)Nn1c(-c2cccs2)nc2ccc(I)cc2c1=O | 53.4 | – | > 100 | > 100 | > 100 | – | > 100 | > 100 | 43.3 | 52.3 | 31.8 | 60.8 | > 100 | 39 |
| CC(=O)O[C@H]1[C@@H](OC2CCCC2(c2ccccc2)c2ccccc2)O[N+]([O-])=C[C@@]12COCc1cc3c(cc12)OCO3 (some centres not stated) | > 58.2 | – | 25.9 | 22 | 17.5 | > 22.9 | 7.67 | 37.2 | 14.3 | > 100 | 4.71 | > 24.5 | > 100 | > 86.2 |
| Cc1cc(N(CCC#N)CCC#N)ccc1/C(N=Nc1ccccc1)=N\NC(=O)c1ccccc1 | 53.6 | > 100 | 45.5 | 76.6 | > 100 | 64.5 | > 100 | > 100 | > 100 | > 100 | > 100 | 61.7 | – | 77.4 |
| O=c1oc2cc(O)ccc2cc1-c1nc2ccccc2s1 | 11 | – | 41.7 | 52.7 | 79.9 | 17.4 | 41.6 | 82.9 | 90.1 | > 100 | 45.6 | 26.8 | 44 | 51 |
| CC1(C)CCCCCC(C)(CCCCCCCCCCCO)C1=O (configuration not stated) | 30.9 | 29.8 | 29.4 | 29.8 | 31.4 | 46.3 | 31.6 | – | 30.9 | 31.8 | 29.9 | 29.7 | 32.9 | 33.8 |
